Assay results: patent US20230000869A1, “NOVEL ALK2 INHIBITORS AND METHODS FOR INHIBITING BMP SIGNALING” (The Brigham and Women's Hospital, Inc., priority 2017, published 2023)

What was measured:
TGFβ = assay: Luciferase reporter gene assay for TGFβ activity (HEK293T SBE-Luc SMAD2/3 reporter, TGFβ agonist); assay type: cell-based; details: TGFβ 5 ng/mL
Outline: (§1)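 TGFβ activity was measured in HEK293T SBE-Luc cells stimulated with 5 ng/mL TGFβ, at compound 10000-30 nM final. ALK2 activity was measured in C2C12 BRE-Luc cells stimulated with 50 ng/mL BMP6, at compound 1000-0.3 nM final. Compound was preincubated 45 min in 2% FBS medium; after ≥18 h agonist exposure, luminescence was read and inhibition expressed as % signal loss versus background-subtracted agonist controls.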

ALK2 [1] = molecular target: T1, ALK2 (Homo sapiens, UniProt Q04771); assay: ALK2 (nM), Table 15; assay type: biochemical
T1 sequence (Q04771 147-509 limits assumed): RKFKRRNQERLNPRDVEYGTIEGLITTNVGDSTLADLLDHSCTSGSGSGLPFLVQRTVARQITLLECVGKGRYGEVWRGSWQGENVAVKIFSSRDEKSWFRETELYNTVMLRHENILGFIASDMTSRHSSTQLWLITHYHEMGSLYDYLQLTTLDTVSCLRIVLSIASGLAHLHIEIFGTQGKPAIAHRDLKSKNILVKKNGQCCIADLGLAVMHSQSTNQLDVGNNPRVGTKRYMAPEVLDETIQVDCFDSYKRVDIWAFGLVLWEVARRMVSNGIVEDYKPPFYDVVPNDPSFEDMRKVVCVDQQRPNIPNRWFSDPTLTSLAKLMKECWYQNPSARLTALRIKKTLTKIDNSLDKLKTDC

TGFb = assay: Cell assay HTRF TGFb (Table 15); assay type: cell-based; details: read-out: HRTF TGFb (IC50)
ACVR2A = ACVR2A (Homo sapiens, UniProt P27037); assay: LanthaScreen Eu kinase binding assay, BMP type II receptor ACVR2A; details: 10-point titration from 10 μM, 3-fold serial dilution, Life Technologies
Excerpt: (§2) For the detailed description of LanthaScreen™ Eu kinase binding assay condition, please see: https://www.thermofisher.com/us/en/home/industrial/pharma-biopharma/drug-discovery-development/target-and-lead-identification-and-validation/kinasebiology/kinase-activity-assays/lanthascreentm-eu-kinas e-binding-assay/lanthascreen-eu-kinase-binding-assay-validation-table.html.

TGFβR2 = TGFβR2 (Homo sapiens, UniProt P37173); assay: LanthaScreen Eu kinase binding assay, BMP type II receptor TGFbR2; details: 10-point titration from 10 μM, 3-fold serial dilution, Life Technologies
Excerpt: as §2

BMP6 = assay: Cell assay HTRF BMP6 (Table 15); assay type: cell-based
ACVR2B = ACVR2B (Homo sapiens, UniProt Q13705); assay: LanthaScreen Eu kinase binding assay, BMP type II receptor ACVR2B; details: 10-point titration from 10 μM, 3-fold serial dilution, Life Technologies
Description: (§3) Kinase Profiling BMP Type II Receptor Experimental Procedure (Life Technologies, 5225 Vernona Road, Madison, Wis. 53744)
(§4) The measurement of each compound's half maximal inhibitory concentration (IC50) for BMP type II receptors (ACVR2A, ACVR2B, BMPR2 and TGFbR2) was carried out at Life Technologies by using its 10-point titration (starting concentration: 10 μM with 3-fold serial dilution) LanthaScreen™ biochemical kinase assay protocol. For the detailed description of LanthaScreen™ Eu kinase binding assay condition, please see: https://www.thermofisher.com/us/en/home/industrial/pharma-biopharma/drug-discovery-development/target-and-lead-identification-and-validation/kinasebiology/kinase-activity-assays/lanthascreentm-eu-kinas e-binding-assay/lanthascreen-eu-kinase-binding-assay-validation-table.html.

BMPR2 = molecular target: T2, BMPR2 (Homo sapiens, UniProt Q13873); assay: LanthaScreen Eu kinase binding assay, BMP type II receptor BMPR2; details: 10-point titration from 10 μM, 3-fold serial dilution, Life Technologies
T2 sequence (Q13873 27-1038): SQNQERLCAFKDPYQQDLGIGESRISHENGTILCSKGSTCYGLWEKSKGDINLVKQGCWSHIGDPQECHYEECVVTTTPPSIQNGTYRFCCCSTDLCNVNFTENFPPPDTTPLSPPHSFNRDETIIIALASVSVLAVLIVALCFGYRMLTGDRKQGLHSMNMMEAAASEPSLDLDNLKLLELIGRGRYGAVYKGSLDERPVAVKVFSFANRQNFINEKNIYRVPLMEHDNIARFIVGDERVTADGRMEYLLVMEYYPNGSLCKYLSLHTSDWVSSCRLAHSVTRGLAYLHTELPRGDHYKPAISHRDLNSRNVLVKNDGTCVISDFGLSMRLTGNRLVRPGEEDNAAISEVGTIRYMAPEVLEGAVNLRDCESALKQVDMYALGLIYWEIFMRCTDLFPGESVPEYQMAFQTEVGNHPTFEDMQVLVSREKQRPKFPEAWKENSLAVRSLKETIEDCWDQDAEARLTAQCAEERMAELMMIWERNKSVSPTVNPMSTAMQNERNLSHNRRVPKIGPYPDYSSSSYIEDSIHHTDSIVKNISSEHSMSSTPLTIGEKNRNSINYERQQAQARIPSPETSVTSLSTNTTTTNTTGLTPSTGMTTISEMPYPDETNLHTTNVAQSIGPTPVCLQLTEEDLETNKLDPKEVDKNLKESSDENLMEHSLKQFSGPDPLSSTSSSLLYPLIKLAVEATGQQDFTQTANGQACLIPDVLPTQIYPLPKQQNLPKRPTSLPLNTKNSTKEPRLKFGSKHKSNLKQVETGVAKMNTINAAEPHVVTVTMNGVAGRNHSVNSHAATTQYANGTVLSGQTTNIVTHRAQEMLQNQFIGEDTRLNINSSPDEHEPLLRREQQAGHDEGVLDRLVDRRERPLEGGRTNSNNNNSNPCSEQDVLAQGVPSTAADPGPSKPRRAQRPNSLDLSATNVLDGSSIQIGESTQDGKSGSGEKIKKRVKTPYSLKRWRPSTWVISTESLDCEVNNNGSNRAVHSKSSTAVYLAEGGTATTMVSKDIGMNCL
Description: as §3, §4

ALK2 [2] = molecular target: T3, ALK2 (Mus musculus, UniProt P37172); assay: Luciferase reporter gene assay for ALK2 activity (C2C12 BRE-Luc SMAD1/5/8 reporter, BMP6 agonist); assay type: cell-based; details: BMP6 50 ng/mL
T3 construct: endogenous in cells; host or cells: C2C12-BRE (BRE-Luc reporter line, G418 selection)
T3 sequence (P37172 21-509): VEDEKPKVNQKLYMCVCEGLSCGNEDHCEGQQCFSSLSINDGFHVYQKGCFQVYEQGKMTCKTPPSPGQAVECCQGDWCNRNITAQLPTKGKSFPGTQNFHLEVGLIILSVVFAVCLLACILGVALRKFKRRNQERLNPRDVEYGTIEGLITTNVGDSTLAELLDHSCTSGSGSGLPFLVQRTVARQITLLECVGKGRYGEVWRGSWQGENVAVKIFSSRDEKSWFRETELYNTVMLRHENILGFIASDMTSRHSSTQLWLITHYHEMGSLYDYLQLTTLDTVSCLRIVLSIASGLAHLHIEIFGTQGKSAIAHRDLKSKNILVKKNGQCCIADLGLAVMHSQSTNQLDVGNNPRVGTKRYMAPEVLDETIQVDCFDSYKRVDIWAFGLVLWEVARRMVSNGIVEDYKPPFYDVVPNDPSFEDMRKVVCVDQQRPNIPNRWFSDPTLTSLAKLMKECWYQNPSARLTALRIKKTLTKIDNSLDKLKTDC
Outline: as §1

Sequence of TGFβR2 (P37173 23-567): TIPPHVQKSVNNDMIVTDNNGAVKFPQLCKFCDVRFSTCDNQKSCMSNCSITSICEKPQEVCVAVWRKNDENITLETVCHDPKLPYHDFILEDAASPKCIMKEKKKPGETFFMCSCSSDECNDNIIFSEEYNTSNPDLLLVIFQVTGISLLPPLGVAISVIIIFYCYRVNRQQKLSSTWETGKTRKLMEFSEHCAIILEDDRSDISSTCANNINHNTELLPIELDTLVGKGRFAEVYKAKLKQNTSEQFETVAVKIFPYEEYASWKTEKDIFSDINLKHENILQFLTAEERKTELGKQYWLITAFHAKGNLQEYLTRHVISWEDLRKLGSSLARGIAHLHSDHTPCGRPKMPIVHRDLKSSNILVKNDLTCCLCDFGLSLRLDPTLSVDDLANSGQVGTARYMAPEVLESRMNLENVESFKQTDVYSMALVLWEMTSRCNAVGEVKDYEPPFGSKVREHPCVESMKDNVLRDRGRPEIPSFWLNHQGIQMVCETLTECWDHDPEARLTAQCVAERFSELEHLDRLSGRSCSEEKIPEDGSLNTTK
Sequence of ACVR2B (Q13705 19-512): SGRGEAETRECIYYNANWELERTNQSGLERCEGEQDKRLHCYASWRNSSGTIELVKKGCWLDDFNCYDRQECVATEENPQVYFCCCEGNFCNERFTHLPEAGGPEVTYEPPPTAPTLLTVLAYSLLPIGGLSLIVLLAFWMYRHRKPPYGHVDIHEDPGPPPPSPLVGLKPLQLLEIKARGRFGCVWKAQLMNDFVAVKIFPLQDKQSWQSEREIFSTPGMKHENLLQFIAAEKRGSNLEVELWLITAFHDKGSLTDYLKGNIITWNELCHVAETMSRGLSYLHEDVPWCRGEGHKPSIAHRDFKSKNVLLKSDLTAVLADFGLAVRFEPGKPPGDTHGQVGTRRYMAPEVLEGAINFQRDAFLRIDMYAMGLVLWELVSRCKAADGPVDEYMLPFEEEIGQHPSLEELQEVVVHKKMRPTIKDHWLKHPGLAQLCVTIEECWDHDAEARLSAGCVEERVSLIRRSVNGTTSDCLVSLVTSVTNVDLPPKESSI
Sequence of ACVR2A (P27037 20-513): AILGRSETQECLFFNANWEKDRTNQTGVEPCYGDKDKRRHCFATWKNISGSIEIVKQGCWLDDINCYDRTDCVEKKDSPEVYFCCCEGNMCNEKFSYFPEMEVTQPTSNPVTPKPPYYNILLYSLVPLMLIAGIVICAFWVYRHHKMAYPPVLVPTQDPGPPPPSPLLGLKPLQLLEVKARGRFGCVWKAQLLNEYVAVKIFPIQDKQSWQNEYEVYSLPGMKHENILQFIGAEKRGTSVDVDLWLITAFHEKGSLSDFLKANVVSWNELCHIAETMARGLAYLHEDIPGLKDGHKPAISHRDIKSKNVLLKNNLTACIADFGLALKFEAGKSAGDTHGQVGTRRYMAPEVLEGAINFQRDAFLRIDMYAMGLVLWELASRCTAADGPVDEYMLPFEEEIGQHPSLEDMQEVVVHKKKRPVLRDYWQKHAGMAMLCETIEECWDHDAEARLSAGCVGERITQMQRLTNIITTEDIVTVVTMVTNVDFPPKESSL

Row | Compound | IC50 (TGFβ; Homo sapiens, HEK-293T) [nM] | IC50 (ALK2 [2]) [nM] | other results
1 | c1ccc2c(-c3cnn4cc(N5CCNCC5)cnc34)ccnc2c1 [Compound 80] | 33 | 25 | IC50 (ALK2 [1]): 93 nM; IC50 (TGFb): 5.79 µM; IC50 (ACVR2A): 3710 nM; IC50 (TGFβR2): 194 nM; IC50 (BMP6): 250 nM; IC50 (ACVR2B): 3610 nM; IC50 (BMPR2): ≥ 10 µM
2 | Cc1cc(-c2cnn3cc(N4CC(OCCN(C)C)C4)cnc23)c2ccccc2n1 [Compound 350] | 975 | 477 | 
3 | Cc1ccc2nccc(-c3cnn4cc(N5CCC(N6CCN(C)CC6)CC5)cnc34)c2c1F [Compound 278] | 897 | 31 | 
4 | Cc1cc(-c2cnn3cc(N4CC(N5CCN(C)CC5)C4)cnc23)c2ccccc2n1 [Compound 222] | 70 | 14 | 
5 | c1ccc2c(-c3cnn4cc(N5CCN(C6CCNCC6)CC5)cnc34)ccnc2c1 [Compound 79] |  |  | IC50 (ALK2 [1]): 110 nM; IC50 (TGFb): 4.61 µM; IC50 (ACVR2A): 851 nM; IC50 (TGFβR2): 71.3 nM; IC50 (BMP6): 97.4 nM; IC50 (ACVR2B): 1280 nM; IC50 (BMPR2): > 10 µM
6 | COc1cc2c(-c3cnn4cc(N5CCC(N6CCN(C)CC6)CC5)ccc34)ccnc2cc1F [Compound 230] | 505 | 46 | 
7 | COc1cc2c(-c3cnn4cc(N5CCC(N6CC[N+](C)(C)CC6)CC5)cnc34)ccnc2cc1F [Compound 44] | 210 | > 3000 | 
8 | Cc1cc(-c2cnn3cc(N4CC(N5CCN(C)CC5)C4)cnc23)c2cccc(F)c2n1 [Compound 316] | < 20 | 22 | 
9 | COc1cc2c(-c3cnn4cc(N5CCC(N6CCCN(C)CC6)CC5)cnc34)ccnc2cc1F [Compound 42] | 59 | 9 | 
10 | CN1CCN(C2CCN(c3cnc4c(-c5ccnc6c5ccn6C)cnn4c3)CC2)CC1 [Compound 253] | > 1000 | 193 | 
11 | COc1cc2c(-c3cnn4cc(N5CCC6(CC5)CN(C)C6)cnc34)ccnc2cc1F [Compound 290] | 63 | 12 | 
12 | COc1cc2c(-c3cnn4cc(N5CCC6(CCN(C)CC6)CC5)cnc34)ccnc2cc1F [Compound 217] | 116 | 33 | 

More lines, main results first:

Row | IC50 (TGFβ; Homo sapiens, HEK-293T) [nM] | IC50 (ALK2 [2]) [nM] | Compound | other results
13 | > 1000 | 32 | COc1cc2c(-c3cnn4cc(N5CCC(N6CCN(C)CC6)CC5)cnc34)ccnc2cc1O [Compound 239] | 
14 | > 1000 | > 1000 | COc1cc2c(-c3cnn4cc(N5CCC(N6CCN(C)CC6)CC5)cnc34)cc(=O)[nH]c2cc1F [Compound 220] | 
15 | 817 | 356 | COc1cc2c(-c3cnn4cc(N5CCC(N6CCN(C)CC(F)(F)C6)CC5)cnc34)ccnc2cc1F [Compound 206] | 
16 | 458 | 87 | NC(=O)c1ccc(-c2cnn3cc(N4CCC(N5CCOCC5)CC4)cnc23)c2ccccc12 [Compound 12] | 
17 | 141 | 26 | COc1cc2c(-c3cnn4cc(N5C[C@H]6CN(C)C[C@H]6C5)cnc34)ccnc2cc1F [Compound 218] | 
18 | 92 | 137 | Cc1cc(-c2cnn3cc(N4CCC(N(C)C)CC4)cnc23)c2ccccc2n1 [Compound 189] | 
19 | 916 | 19 | CN1CCN(C2CCN(c3cnc4c(-c5ccnc6ncccc56)cnn4c3)CC2)CC1 [Compound 261] | 
20 | < 10 | 37 | CN1CCN(C2CCN(c3cnc4c(-c5ccnc6cc(F)c(O)cc56)cnn4c3)CC2)CC1 [Compound 242] | 
21 |  | 24 | COc1cc2c(-c3cnn4cc(N5CCC6(CC5)CN(C)C6)cnc34)ccnc2cc1F [Compound 216] | IC50 (TGFβ): 44 nM
22 | < 1 | 3 | Cc1cc(-c2cnn3cc(N4CC5(CN(C)C5)C4)cnc23)c2ccccc2n1 [Example 298] | 
23 | > 2000 | > 1000 | CN1CCN(C2CCN(c3cnc4c(-c5cccc6[nH]ncc56)cnn4c3)CC2)CC1 [Compound 243] | 
24 | > 3000 | 311 | CN1CCN(C2CCN(c3cnc4c(-c5ccnc6cn[nH]c56)cnn4c3)CC2)CC1 [Compound 269] | 
25 | 60 | 33 | Cc1cc(-c2cnn3cc(N4CC(N5CCN(C)CC5)C4)cnc23)c2cc(F)cc(F)c2n1 [Compound 311] | 
26 | 118 | 334 | CN1CCN(C2CCN(c3cnc4c(-c5cnn6ccccc56)cnn4c3)CC2)CC1 [Compound 26] | 
27 | > 3000 | > 1000 | CN1CCN(C2CN(c3cnc4c(N5CCN(C(=O)C6CC6)CC5)cnn4c3)C2)CC1 [Compound 339] | 
